Laboratory results from patent US4499104A, “Imidazole compound, the process for its preparation, and therapeutically active compositions containing same” (priority 1976, dated 1985).

What was measured:
[1] = Pulminary edema by carrageen (Sancilio method, pleural exudate); assay type: in vivo, Wistar-Roux-Ocefa rats; settings: for ml of exudate: 30 mg/Kg, pleural cavity
Experimental: Using the Sancilio method (Sancilio F. L., J. Pharmacol. Exptl. Therap., 168, 199 (1969); Sancilio L. F. Rodrigues R., Proc. Soc. Exptl. Biol. Med., 123, 707 (1969); Sancilio L. F. Lawrence R., Proc. Soc. Exptl. Biol. Med., 127, 597 (1968), pulminary irritation was induced in Wistar-Roux-Ocefa rats and the capacity of chlorophenazole and other drugs to prevent production of pleural exudate was measured. 5 ml of a 0.025% carrageen solution and 0.075% Evans blue were injected into the pleurea.
The action of chlorophenazole, mepyrazole and phenylbutazone were evaluated from the quantity of exudate present in the pleural cavity after 1 and 6 hours.

[2] = Edema by carrageen (rat paw), antiedematous activity; assay type: in vivo, Rats of the Wistar-Roux-Ocefa stock; settings: for IT (DL50/DE50): DL50/DE50, os; for ED50: Rattus norvegicus, po, os, probits method and graphically, read-out: DE50 (the source's name)
Experimental: (§1) A 1% physiological solution of carrageen was used. Rats of the Wistar-Roux-Ocefa stock having a weight of 150±30 g were used. The drugs were suspended in 1% carboxymethylcellulose or dissolved in distilled water and administered orally one hour before the inflammatory agent in a volume of 0.5 ml/100 g. The carrageen was adminstered subcutaneously in the subplanetary region of one of the rear paws. The volume of the paw was measured platysmagraphically initially and then after 1.5 hour, 3 hours and 5 hours after administering the carrageen. One inflammation unit was defined as the displacement of 0.01 ml of Hg.
(§2) The edema was evaluated as the difference in volume of the rear paw before and after the carrageen. The DE 50 was calculated by the probits method and graphically. The comparison drugs used were phenylbutazone and niflumic acid.

[3] = Edema by carrageen in normal and adrenoprival (suprarenectomised) rats; assay type: in vivo, rat; parameters: Edema by carrageen: unit not given beside the values; settings: adrenoprival rats
Experimental: as §1, §2
To evaluate if the activity of the chlorophenazole on edema by carrageen was influenced by stimulation of the suprarenes, experiments were carried out with suprarenectomised rats. Normal rats were also compared with falsely operated rats to evaluate the influence of the operational trauma.

in vivo = settings: rat, po
[4] = Action on sleep by barbiturates; assay type: in vivo, Wistar-Ocefa rats; settings: pentobarbital sodium 40 mg/kg alone
Experimental: […] Loss of the redressment reflex was taken to indicate commencement of sleep. The chlorophenazone was administered orally with a dose of 1/10 of the DL50. The induction time and the duration of sleep were measured.

rats = assay: Chronic toxicity, first experiment (60 days); assay type: in vivo, Wistar-Ocefa rats; settings: rat, in vivo
Experimental: Wistar-Ocefa rats of both sexes weighing 70-90 g were used, divided into groups of 30 animals (15 males and 15 females) to a total of […].
Chlorophenazole and phenylbutazone (reference drug) were administered orally for a period of 60 days in doses of 30-60 mg/kg of chlorophenazole and 8-160 mg/kg of phenylbutazone (first experiment) and for a period of 5 months in doses of 6-12 mg/kg of chlorophenazole and 16 mg/kg of phenylbutazone (second experiment).
The following parameters were determined periodically: behavior, general state, food consumption, body weight, red blood cell number, white blood cell number, leucocite formula, hemoglobin, hematocrit, globular value, total proteins, glycemia, azotemia, cholesterol, total lipids, triglycerides, creatinine, GOT, GPT, urine analysis. At the end of the experiment the animals were sacrificed, their general state was observed, the following organs were weighed: liver, spleen, kidneys, supranenes, ovary and testicles, lungs, heart, stomach.

SMILES	ml of exudate [1]	Δ Volume of the inflamed paw ([2]; 10 mg/kg oral, 1.5 hours)	Δ Volume of the inflamed paw ([2]; 10 mg/kg oral, 3 hours)	Δ Volume of the inflamed paw ([2]; 10 mg/kg oral, 5 hours)	Δ Volume of the inflamed paw ([2]; 20 mg/kg oral, 1.5 hours)	Δ Volume of the inflamed paw ([2]; 20 mg/kg oral, 3 hours)	Δ Volume of the inflamed paw ([2]; 20 mg/kg oral, 5 hours)	Δ Volume of the inflamed paw ([2]; 40 mg/kg oral, 1.5 hours)	Δ Volume of the inflamed paw ([2]; 40 mg/kg oral, 3 hours)	Δ Volume of the inflamed paw ([2]; 40 mg/kg oral, 5 hours)	IT (DL50/DE50) [2]	ED50 [2]	LD50 (in vivo)	other results
COc1cc(C)nc(-n2nc(C)cc2OC)n1 [Mepyrazole]	4.38 mL													
O=C(O)c1cccnc1Nc1cccc(C(F)(F)F)c1 [Niflumic acid]		25 UPI	51 UPI	80 UPI	20 UPI	35 UPI	56 UPI	18 UPI	33 UPI	49 UPI	11.40	7 mg/kg	30 mg/kg	Edema by carrageen ([3]; 10 mg/kg, 1.5 hours): 25; Edema by carrageen ([3]; 10 mg/kg, 3 hours): 34; Edema by carrageen ([3]; 20 mg/kg, 1.5 hours): 20; Edema by carrageen ([3]; 20 mg/kg, 3 hours): 24; Edema by carrageen ([3]; 40 mg/kg, 1.5 hours): 19; Edema by carrageen ([3]; 40 mg/kg, 3 hours): 30
CCCC(C)C1(CC)C(=O)NC(=O)NC1=O (stereo not shown) [Pentobarbital sodium, reference compound]														Induction time [4]: 4.4 min; Sleeping time [4]: 49.1 min
CCCCC1C(=O)N(c2ccccc2)N(c2ccccc2)C1=O [Phenylbutazone]	3.12 mL	28 UPI	65 UPI	88 UPI	26 UPI	59 UPI	74 UPI	24 UPI	51 UPI	73 UPI	23.40	15 mg/kg	351 mg/kg	cholesterol (rats): the same for cholesterol at the larger doses; stomach appearance (rats): contract and pale; activity on pleural exudate ([1]; exudate after 1 and 6 hours): significantly active
